Where “and” joins values, the source holds several entries; their conditions need not be identical. Equal values may be shown once.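 1) Cells in 96-well plates. 2) Compound, 48 h, 5 concentrations. 3) Linear interpolation between surrounding doses. 4) Unreached endpoint = highest concentration. GI50 is the concentration that inhibits growth by half. TGI denotes the concentration required for complete inhibition of growth.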
What was measured:
Assay in all cases: DTP human tumour cell line panel, 48 h
[1] = tested on: SN12C renal
[2] = tested on: DU-145 prostate
[3] = tested on: K-562 leukemia
[4] = tested on: OVCAR-3 ovarian
[5] = tested on: SK-OV-3 ovarian
[6] = tested on: LOX IMVI melanoma
[7] = tested on: HS 578T breast
[8] = tested on: MDA-MB-231 breast
[9] = tested on: MDA-N
[10] = tested on: BT-549 breast
[11] = tested on: PC-3 prostate
[12] = tested on: KM12 colon
[13] = tested on: SF-295 CNS
[14] = tested on: TK-10 renal
[15] = tested on: A549 NSCLC
[16] = tested on: OVCAR-8 ovarian

SMILES	TGI [1] [µM]	TGI [2] [µM]	TGI [3] [µM]	TGI [4] [µM]	TGI [5] [µM]	TGI [6] [µM]	TGI [7] [µM]	TGI [8] [µM]	TGI [9]	TGI [10] [µM]	TGI [11] [µM]	TGI [12] [µM]	TGI [13] [µM]	TGI [14] [µM]	TGI [15] [µM]	TGI [16] [µM]	GI50 [3] [µM]	GI50 [9]	GI50 [12]
CCCCC/C=C1\CCC(CN2CCOCC2)C1=O (stereo not drawn)	37.6	33.2	7	12.2	35.3	10.5	> 100	> 23.2	25.4 µM	32.3	30.9	10.7	32.3	18.9	39.4	13	–	–	–
Cc1nc(SCC(=O)Nc2ccccc2)c2sc(=S)n(-c3ccccc3)c2n1	> 10	> 10	–	> 10	> 10	> 10	> 10	> 10	> 10 µM	> 10	> 10	> 10	> 10	> 10	> 10	> 10	–	–	–
CNNC1=NS(=O)(=O)c2cc(C(=O)OC)c(Cl)cc2S1	> 10	> 10	> 10	> 10	> 10	> 10	> 10	> 10	> 10 µM	> 10	> 10	> 10	> 10	> 10	> 10	> 10	–	–	–
CC1=CC(=O)c2cccc(O)c2C1=O	5.11	20.6	20	2.96	27.4	8.6	7.13	3.15	3.34 µM	3.13	5.7	25.3	27.7	5.05	34.7	15.4	–	–	–
C/C(=N/NC(=S)Nc1cccc(Cl)c1)c1cccc(/C(C)=N\NC(=S)Nc2cccc(Cl)c2)n1	> 46.3	> 73.1	> 40.4	–	> 55.3	> 38.5	> 74.6	> 100	> 65.7 µM	> 100	> 58.1	> 100	> 30	> 100	> 24.5	> 37.5	–	–	–
COC(=O)c1ccc(NCc2cc(O)c3ccccc3c2O)cc1	40	30.3	6.97	28.2	31.6	11.5	98.2	6.02	3.98 µM	30.7	33.5	> 50	19.9	39.1	23.4	93.4	–	–	–
Fc1ccc(C(OCCN2CC3CC2CN3CCCc2ccccc2)c2ccc(F)cc2)cc1 (stereo not drawn)	22.1	24.3	–	25.5	31.7	19.2	25.8	15.7	19 µM	24	17.7	21.2	20.9	23.7	26.6	10.1	–	–	–
CC(C)Nc1n[nH]c(=O)n1C(C)C	> 100	> 100	> 100	> 100	> 100	> 100	> 100	> 100	> 100 µM	> 100	> 100	> 100	> 100	> 100	> 100	> 100	–	–	–
CNC(=S)N/N=C(\C)c1ccc(OC)cc1O	> 100	> 100	> 100	> 100	> 100	> 100	> 100	> 100	> 100 µM	> 100	> 100	> 100	> 100	–	> 100	> 100	–	–	–
CC(C)C(OC(=O)c1cc(NC(=S)c2ccccc2)ccc1Cl)C(C)C	39.6	> 100	> 100	52.5	99.4	70.4	69	57.4	39.8 µM	91.1	38.4	39.6	> 84.7	> 86.3	> 94.7	> 100	–	–	–
COc1ccc(C(=O)N=C2N(c3ccccc3)C(=Nc3ccccc3)C(=Nc3ccccc3)N2c2ccccc2)cc1	> 100	> 100	> 100	> 100	> 100	> 100	96.5	> 100	> 100 µM	> 58.2	> 65.5	> 100	> 100	> 61.2	> 100	> 100	–	–	–
COc1ccc(C(F)(F)F)cc1NC(=O)O/N=C(/Cl)C(C)C	32.2	34.3	3.99	34.8	> 67.3	13.2	> 78.3	37.4	32.4 µM	41.3	34.5	> 60.2	> 66.3	28.4	40	41.1	–	–	–
O=C(/C=C/c1ccc(O)c(O)c1)Oc1ccccc1	48.7	43.8	> 100	47.6	> 100	21	49	61.8	> 81 µM	53.6	> 76.9	40.4	61.4	> 100	59	38.2	–	–	–
O=C(CCNC(=O)OCc1ccccc1)OCCCNC(=O)OCc1ccccc1	> 100	> 100	> 100	> 100	> 100	> 100	> 100	> 100	> 100 µM	> 100	> 100	> 100	> 100	> 100	> 100	> 100	–	–	–
N#C/C(=C\N1CCNC1=S)C(=O)c1ccc2ccccc2c1	> 100	> 100	> 100	> 100	> 100	> 100	> 100	> 100	> 100 µM	> 100	> 100	> 100	> 100	> 100	> 100	> 100	–	–	–
OC(CCN1CCN(CCOC(c2ccc(F)cc2)c2ccc(F)cc2)CC1)c1ccccc1 (stereo not drawn)	29.4	32.8	26.4	31.4	32.5	28.2	37.3	28.8	28.5 µM	27.1	26.7	44	34.6	29.2	31	25.7	–	–	–
C=C(Cl)C(Br)(CCl)CCC(Cl)C(C)C (stereo not drawn) (tested in a mixture with another compound)	3.08	3.25	24.2	5.15	8.85	1.23	7.48	2.49	3.45 µM	3.19	10.6	3.55	19.6	4.05	31.9	–	–	–	–
C[C@H](C(=O)N1C(=O)O[C@@H](c2ccccc2)[C@H]1C)[C@H](c1ccccc1)N(Cc1ccccc1)OC(=O)c1ccccc1	> 100	> 100	> 100	–	> 100	> 100	> 100	> 100	> 100 µM	> 100	> 100	> 100	90.9	> 100	> 100	> 100	–	–	–
COC(=O)C1=C(O)C(C(=O)OC)[C@@]2(O)[C@@H](C(=O)OC)C(c3ccc(OC(=O)/C(=C/c4ccccc4)c4ccccc4)cc3)C[C@@H]1[C@@H]2C(=O)OC (stereo partly drawn)	> 100	> 100	> 100	> 100	> 100	22.5	> 100	> 100	87.7 µM	> 100	> 100	> 100	> 100	51.4	> 100	> 100	–	–	–
COC(=O)c1ccc(/C=N/c2cc(C)nn2-c2ccccc2)cc1	> 100	> 100	> 100	38.7	> 100	> 100	> 100	> 100	> 100 µM	> 100	> 100	> 100	> 100	6.18	> 100	> 100	–	–	–
Cc1ccc(-c2n[nH]c(=O)n2N)cc1	> 100	> 100	> 100	> 100	> 100	> 100	> 100	> 100	> 100 µM	> 100	> 100	> 100	> 100	> 100	> 100	> 100	–	–	–
Cn1cc(C=C(C#N)C#N)c(=O)n(C)c1=O	> 100	> 100	–	> 100	> 100	> 100	> 100	> 100	> 100 µM	> 100	> 100	> 100	> 100	> 100	> 100	> 100	–	–	–
COc1ccc(-c2c(N)n(-c3cc(OC)cc(OC)c3)c(=O)c3cc([N+](=O)[O-])ccc23)cc1	> 100	> 100	> 100	> 100	> 100	> 100	> 100	> 100	> 100 µM	> 93.6	> 100	> 100	> 100	> 100	> 100	> 100	–	–	–
COc1cccc(N2CCc3c(C)c(C#N)c4nc5ccccc5n4c32)c1	> 100	> 100	> 100	> 100	> 100	> 100	60.7	> 100	> 100 µM	> 100	> 100	–	> 100	> 100	> 100	> 100	–	–	–
Cc1nnc2nc(-c3ccc(Cl)cc3Cl)cc(-c3ccc(Cl)cc3)n12	> 100	> 100	> 100	> 100	> 100	> 100	> 100	> 100	> 100 µM	> 100	> 100	> 100	> 100	> 100	> 100	> 100	–	–	–
O=C(c1cccs1)N(C(=S)OCc1ccccn1)c1ccccc1	> 100	> 100	> 100	> 100	> 100	> 100	> 100	> 100	> 100 µM	> 100	> 100	> 100	> 100	> 100	–	> 100	–	–	–
COC(=O)c1ccccc1C1CN=NC12Cc1c(C)c3c(c(C)c1C2=O)CCC3 (stereo not drawn)	> 100	> 100	> 100	> 100	> 100	> 100	> 100	> 100	> 100 µM	> 100	> 100	> 100	> 100	90.8	> 100	> 100	–	–	–
CC(=O)OCC1OC(Sc2nc(-c3ccc(C)cc3)c(C#N)c(=O)n2C2OC(COC(C)=O)C(OC(C)=O)C(OC(C)=O)C2OC(C)=O)C(OC(C)=O)C(OC(C)=O)C1OC(C)=O (stereo not drawn)	> 100	> 100	> 100	> 100	> 100	> 100	> 100	> 100	> 100 µM and 64.6 µM	> 100	> 100	> 100	> 100	> 100	> 100	> 100	> 100	> 100 µM and 10.1 µM	> 100 µM and 38.7 µM
CN(C)c1ncc(-c2c[nH]c3ccccc23)nc1-c1c[nH]c2ccccc12	5.78	20.9	8.48	18.6	20.4	5.33	9.5	4.62	4.54 µM	49.1	13	5.3	6.48	22.1	19.4	23	–	–	–
